Experimental findings from EP0326331B1, “Substituted quinolines and cinnolines” (Dow AgroSciences LLC, priority 1988, dated 1989) are described below.

Read-outs that look alike come from different tables or passages of the source.

Common to all, as to format: in vivo
Data set [1] concerns corn rootworm. The experiment in a line: Mite/insect screen, CRW. The conditions noted are these: percent mortality; for mortality at 12 ppm / mortality at 24 ppm: read-out: CRW RESULTS %. The procedure, abridged: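 Read-out: % mortality after standard exposure. Formulation: acetone/alcohol (50:50) with emulsifiers at 23 g and 13 g per liter, water-diluted to final test levels.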

For data set [2], the system named is Pseudoperonospora cubensis (downy mildew). As to the kind of experiment: Test 1 greenhouse foliar spray screen, downy mildew on squash. The note with it: for DOWN MDEW: disease control rating, foliar spray on squash, 400 ppm (+++ at 100 ppm); for activity against downy mildew: summary statement in the description; for pest or weed control at 400 ppm: Pseudoperonospora cubensis, foliar, Test 1, foliar spray on squash, disease control rating at 400 ppm / 100 ppm, read-out: DOWN MDEW.

In data set [3] the test system is Cercospora beticola (leaf spot). The experiment in a line: Test 1 greenhouse foliar spray screen, leaf spot on sugar beet. The conditions noted are these: for LEAF SPOT: disease control rating, foliar spray on sugar beet, 400 ppm (+++ at 100 ppm); for pest or weed control at 400 ppm: Cercospora beticola, Test 1, foliar spray on sugar beet, disease control rating at 400 ppm / 100 ppm.

In data set [4] the test system is plant pathogens. As to the kind of experiment: Fungicidal efficacy against a broad spectrum of plant pathogens (summary of screen). The conditions noted are these: summary statement in the description.
In data set [5] the test system is Erysiphe graminis tritici (powdery mildew). As to the kind of experiment: Test 1 greenhouse foliar spray screen, powdery mildew on wheat. The conditions noted are these: for POWD MDEW: disease control rating, foliar spray on wheat, 400 ppm (+++ at 100 ppm); for pest or weed control at 400 ppm: Blumeria graminis, foliar, Test 1, foliar spray on wheat, disease control rating at 400 ppm / 100 ppm, read-out: POWD MDEW.

Data set [6] has as its system Twospotted spider mites (Tetranychus urticae Koch). The experiment in a line: Mite/insect screen, SM. The note with it: for mortality at 200 ppm / mortality at 400 ppm: Tetranychus urticae, read-out: SM RESULTS %; for mortality at 200 ppm / SM RESULTS % / mortality at 400 ppm: percent mortality; for activity as miticides: summary statement in the description. The procedure, abridged: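 Foliar spray to runoff (10 psi), 1 h drying; aqueous dilutions from acetone/alcohol emulsifier stock. Mortality (%) after standard exposure.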

In data set [7] the test system is Botrytis cinerea (gray mold). As to the kind of experiment: Test 1 greenhouse foliar spray screen, gray mold on grape berries. The note with it: for GRAY MOLD: disease control rating, spray on grape berries, 400 ppm (+++ at 100 ppm); for pest or weed control at 400 ppm: Botrytis cinerea, foliar, Test 1, spray on grape berries, disease control rating at 400 ppm / 100 ppm.

For data set [8], the system named is Septoria tritici (leaf blotch). The experiment in a line: Test 1 greenhouse foliar spray screen, leaf blotch on wheat. The note with it: for LEAF BLOT: disease control rating, foliar spray on wheat, 400 ppm (+++ at 100 ppm); for pest or weed control at 400 ppm: Zymoseptoria tritici, Test 1, foliar spray on wheat, disease control rating at 400 ppm / 100 ppm, read-out: LEAF BLOT.

The test system of data set [9] is Venturia inaequalis (apple scab). As to the kind of experiment: Test 1 greenhouse foliar spray screen, apple scab on apple seedling. The note with it: for APPL SCAB: disease control rating, foliar spray on apple seedling, 400 ppm (+++ at 100 ppm); for pest or weed control at 400 ppm: Venturia inaequalis, Test 1, foliar spray on apple seedling, disease control rating at 400 ppm / 100 ppm, read-out: APPL SCAB.

Data set [10] has as its system Pyricularia oryzae (rice blast). The experiment in a line: whole plant or invertebrate. The conditions noted are these: for RICE BLAST: disease control rating, foliar spray on rice, 400 ppm (+++ at 100 ppm); for pest or weed control at 400 ppm: Pyricularia oryzae, foliar, read-out: RICE BLAST, Test 1, foliar spray on rice, disease control rating at 400 ppm / 100 ppm.

Data set [11] relates to Puccinia recondita tritici (leaf rust). The experiment in a line: Test 1 greenhouse foliar spray screen, leaf rust on wheat. The note with it: for LEAF RUST: disease control rating, foliar spray on wheat, 400 ppm (+++ at 100 ppm); for pest or weed control at 400 ppm: Puccinia recondita, foliar, Test 1, foliar spray on wheat, disease control rating at 400 ppm / 100 ppm.
The subject of data set [12] is melon aphids (Aphis gossypii Glover). The experiment in a line: Mite/insect screen, MA. The conditions noted are these: percent mortality; for mortality at 200 ppm / mortality at 400 ppm: Aphis gossypii, read-out: MA RESULTS %. The procedure, abridged:
(§1)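 Read-out: percent mortality after standard exposure periods. Test solutions were water dilutions of compound dissolved in acetone/alcohol (50:50) with emulsifier blends; leaves were sprayed to runoff on both surfaces and air-dried for one hour before exposure.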

Data set [13] deals with southern armyworm (Spodopetra eridania Cramer). The experiment in a line: Mite/insect screen, SAW. The conditions noted are these: Spodoptera eridania, percent mortality, read-out: SAW RESULTS %; for mortality at 200 ppm: rate 200 ppm. The procedure, abridged:
as §1

[14] abbreviates: foliar, rate 200 ppm, foliar spray on squash.
Setting [15] is: foliar, rate 400 ppm, foliar spray on squash.

As for `Fc1cccc2c(NCCc3ccc(Cl)cc3Cl)ccnc12` [Example 76, N-[2-(2,4-dichlorophenyl)ethyl]-8-fluoro-4-quinolinamine], in [1] (CRW RATE 12.00 PPM), the “CRW RESULTS %” value was 0% and the mortality at 12 ppm is 0%. The “DOWN MDEW” value in data set [2] is listed as “+++ (90-100% control at 100 ppm)”. For the same molecule, the “LEAF SPOT” value in data set [3] was “- (0-19% control at 400 ppm)”. Besides, the “activity against a broad spectrum of plant pathogens” value (“activity against a broad spectrum” below) in data set [4] is reported as “particularly excellent activity”. The “POWD MDEW” value in [5] was “++ (90-100% control at 400 ppm)”. Further, in data set [6] (SAW, SM & MA RATE 200 PPM), the mortality at 200 ppm worked out at 0% and the “SM RESULTS %” value is 0%. Moreover, the “GRAY MOLD” value in [7] is “- (0-19% control at 400 ppm)”. Further, the “LEAF BLOT” value in data set [8] was “+++ (90-100% control at 100 ppm)”. For the same molecule, in [9], the “APPL SCAB” value is recorded as “+ (20-89% control at 400 ppm)”. Further, in data set [10], the “RICE BLAST” value is reported as “+++ (90-100% control at 100 ppm)”. The “LEAF RUST” value in data set [11] is given as “+++ (90-100% control at 100 ppm)”. In addition, in data set [12] (SAW, SM & MA RATE 200 PPM), the mortality at 200 ppm is 0% and the “MA RESULTS %” value was found to be 0%.
In the case of `CC(C)c1ccc(CCNc2ccnc3c(F)cccc23)cc1` [Example 114, N-[2-[4-(i-propyl)phenyl]ethyl]-8-fluoro-4-quinolinamine], in [1] (CRW RATE 24.00 PPM), the mortality at 24 ppm is 0%. Also, the “DOWN MDEW” value in [2] was “+++ (90-100% control at 100 ppm)”. The “activity against downy mildew” value in data set [2] is listed as “particularly excellent activity”. The “LEAF SPOT” value in data set [3] is listed as “+++ (90-100% control at 100 ppm)”. Moreover, the “activity against a broad spectrum” value in [4] is given as “particularly excellent activity”. Further, the “POWD MDEW” value in data set [5] is on record as “+++ (90-100% control at 100 ppm)”. For the same molecule, the mortality at 400 ppm in data set [6] (SAW, SM & MA RATE 400 PPM) is 100%; in data set [13] (SAW, SM & MA RATE 400 PPM), 70%; in data set [12] (SAW, SM & MA RATE 400 PPM) it was 30%. The activity as miticides entry in data set [6] was “particularly excellent activity”. Further, the “GRAY MOLD” value in data set [7] is recorded as “- (0-19% control at 400 ppm)”. Also, the “LEAF BLOT” value in data set [8] was “+++ (90-100% control at 100 ppm)”. Further, the “APPL SCAB” value in [9] was “- (0-19% control at 400 ppm)”. The “RICE BLAST” value in data set [10] is “+++ (90-100% control at 100 ppm)”. Further, in data set [10] (summary statement in the description), the “activity against rice blast” value is “particularly excellent activity”. For the same molecule, the “LEAF RUST” value in data set [11] is “+++ (90-100% control at 100 ppm)”.
As to `Fc1cccc2c(OCCc3ccc(Cl)cc3)ccnc12` [Example 209, 4-[2-(4-chlorophenyl)-ethoxy]-8-fluoroquinoline], the “CRW RESULTS %” value in [1] (CRW rate 12.00 ppm) is reported as 0%. In data set [1] (CRW rate 12.00 ppm), the mortality at 12 ppm worked out at 0%. Besides, the pest or weed control at 400 ppm in data set [2] lay within 90 to 100%; in data set [3], 90 to 100%; in data set [5], 90 to 100%; in [7], 0 to 19%; in data set [8], 90 to 100%; in data set [9], 20 to 89%. Besides, the pest or weed control at 400 ppm in [10] and in data set [11] was 90 to 100% in each case. Also, the “activity against a broad spectrum” value in [4] is reported as “particularly excellent activity”. In addition, in [6] (setting [14]), the mortality at 200 ppm is 0%. Also, in data set [6] (rate 200 ppm, foliar spray on squash), the “SM RESULTS %” value was determined as 0%.
As for `Cc1ccc(CCOc2ccnc3ccccc23)cc1` [Example 210, 4-[2-(4-methylphenyl)ethoxy]quinoline], in [1] (CRW rate 12.00 ppm), the mortality at 12 ppm is 0%. For the same molecule, the pest or weed control at 400 ppm in data set [2] was in the range of 90 to 100%; in [3] it was 20 to 89%; in [5], 90 to 100%; in [7] it was 0 to 19%; in [8], 90 to 100%; in data set [9] it was 0 to 19%. The pest or weed control at 400 ppm in data set [10] and in data set [11] was 90 to 100% in each case. In [2], the “activity against downy mildew” value is recorded as “particularly excellent activity”. Besides, the “activity against a broad spectrum” value in data set [4] is reported as “particularly excellent activity”. In addition, the mortality at 200 ppm turned out to be 0% in data set [6] (setting [14]); 0% in data set [13] (foliar, foliar spray on squash); 0% in data set [12] (setting [14]).
For `COc1ccccc1CCOc1ccnc2c(F)cccc12` [Example 228, 8-fluoro-4-[2-(2-methoxyphenyl)ethoxy]quinoline], the mortality at 12 ppm in data set [1] (CRW rate 12.00 ppm) worked out at 0%. Further, the mortality at 24 ppm in data set [1] (CRW rate 24.00 ppm) is 0%. In addition, the pest or weed control at 400 ppm in data set [2] fell in the range of 90 to 100%; in data set [3] it was 20 to 89%; in data set [5], 90 to 100%; in data set [7], 0 to 19%; in data set [8] it was 90 to 100%; in data set [9], 90 to 100%. In addition, the pest or weed control at 400 ppm in data set [10] and in data set [11] was 90 to 100% throughout. In addition, the “activity against a broad spectrum” value in data set [4] is recorded as “particularly excellent activity”. In addition, the mortality at 200 ppm in data set [6] (setting [14]) was 0%; in [13] (foliar, foliar spray on squash), 0%; in data set [12] (setting [14]), 0%. Moreover, the mortality at 400 ppm in data set [6] (setting [15]) came to 0%; in [13] (setting [15]), 0%; in data set [12] (setting [15]), 80%.
For `CC(C)c1ccc(CCOc2ccnc3c(F)cccc23)cc1` [Example 238, 8-fluoro-4-[2-(4-(i-propyl)phenyl)ethoxy]quinoline], the mortality at 12 ppm in data set [1] (CRW rate 12.00 ppm) came to 0%. In [1] (CRW rate 24.00 ppm), the mortality at 24 ppm is 0%. The pest or weed control at 400 ppm fell in the range of 90 to 100% in data set [2]; 90 to 100% in [5]; 20 to 89% in data set [7]; 90 to 100% in data set [10]; 90 to 100% in [11]. In data set [4], the “activity against a broad spectrum” value was “particularly excellent activity”. In addition, the mortality at 200 ppm stood at 100% in [6] (setting [14]); 0% in data set [13] (foliar, foliar spray on squash); 100% in data set [12] (setting [14]). The mortality at 400 ppm in data set [6] (setting [15]) came out at 0%; in data set [13] (setting [15]), 100%; in data set [12] (setting [15]), 0%. In addition, the activity as miticides entry in data set [6] is recorded as “particularly excellent activity”.
On to `CC(C)c1ccc(CCCc2ccnc3c(F)cccc23)cc1` [Example 256, 8-fluoro-4-[3-(4-(i-propyl)phenyl)propyl]quinoline], for which, in [1] (CRW rate 24.00 ppm), the mortality at 24 ppm came to 100%. The pest or weed control at 400 ppm fell in the range of 90 to 100% in data set [2]; 90 to 100% in data set [5]; 0 to 19% in [7]; 90 to 100% in data set [10]; 90 to 100% in [11]. Moreover, the “activity against a broad spectrum” value in data set [4] is given as “particularly excellent activity”. The mortality at 400 ppm in [6] (setting [15]) was 0%; in data set [13] (setting [15]), 100%; in data set [12] (setting [15]), 0%.
